Among the data in ChEMBL document CHEMBL3272011, “Aminobenzoic acid diuretics. 9. 3,4-Disubstituted 5-acylaminobenzoic acids and related compounds” (1977) are Activity values, retold here.

The subject of assay [1] is Canis familiaris. Briefly: Diuretic effect in mongrel dog assessed as urinary excretion of water at 1 mg/kg, iv after 3 hrs (reference value: 0.93 +/- 0.35 ml/kg). Format: functional, Canis lupus familiaris, Urine.
Assay [2] deals with Canis familiaris. Briefly: Diuretic effect in mongrel dog assessed as urinary excretion of Na+ at 1 mg/kg, iv after 3 hrs (reference value: 0.10 +/- 0.02 mequiv/kg). It is filed as functional, Canis lupus familiaris, Urine.
The subject of assay [3] is Canis familiaris. Description: Diuretic effect in mongrel dog assessed as urinary excretion of K+ at 1 mg/kg, iv after 3 hrs (reference value: 0.16 +/- 0.01 mequiv/kg). It is filed as functional, Canis lupus familiaris, Urine.
Assay [4] deals with Canis familiaris. Description: Diuretic effect in mongrel dog assessed as urinary excretion of Cl- at 1 mg/kg, iv after 3 hrs (reference value: 0.08 +/- 0.02 mequiv/kg). Format: functional, Canis lupus familiaris, Urine.
The subject of assay [5] is Canis familiaris. Description: Diuretic effect in mongrel dog assessed as urinary excretion of water at 1 mg/kg, po after 3 hrs (reference value: 0.93 +/- 0.35 ml/kg). Format: functional.
For assay [6], the system named is Canis familiaris. Description: Diuretic effect in mongrel dog assessed as urinary excretion of water at 10 mg/kg, iv after 3 hrs (reference value: 0.93 +/- 0.35 ml/kg). It is filed as functional, Canis lupus familiaris, Urine.
Assay [7] has as its system Canis familiaris. Description: Diuretic effect in mongrel dog assessed as urinary excretion of Na+ at 10 mg/kg, iv after 3 hrs (reference value: 0.10 +/- 0.02 mequiv/kg). It is filed as functional, Canis lupus familiaris, Urine.
Assay [8] relates to Canis familiaris. Description: Diuretic effect in mongrel dog assessed as urinary excretion of K+ at 10 mg/kg, iv after 3 hrs (reference value: 0.16 +/- 0.01 mequiv/kg). It is filed as functional, Canis lupus familiaris, Urine.
Assay [9] concerns Canis familiaris. Briefly: Diuretic effect in mongrel dog assessed as urinary excretion of Cl- at 10 mg/kg, iv after 3 hrs (reference value: 0.08 +/- 0.02 mequiv/kg). Format: functional, Canis lupus familiaris, Urine.
The test system of assay [10] is Canis familiaris. Description: Diuretic effect in mongrel dog assessed as urinary excretion of water at 0.1 mg/kg, iv after 3 hrs (reference value: 0.93 +/- 0.35 ml/kg). It is filed as functional, Canis lupus familiaris, Urine.
Assay [11] has as its system Canis familiaris. Description: Diuretic effect in mongrel dog assessed as urinary excretion of Na+ at 0.1 mg/kg, iv after 3 hrs (reference value: 0.10 +/- 0.02 mequiv/kg). It is filed as functional, Canis lupus familiaris, Urine.
Assay [12] relates to Canis familiaris. Description: Diuretic effect in mongrel dog assessed as urinary excretion of Na+ at 1 mg/kg, po after 3 hrs (reference value: 0.10 +/- 0.02 mequiv/kg). Format: functional, Canis lupus familiaris, Urine.
The test system of assay [13] is Canis familiaris. Description: Diuretic effect in mongrel dog assessed as urinary excretion of K+ at 1 mg/kg, po after 3 hrs (reference value: 0.16 +/- 0.01 mequiv/kg). Format: functional, Canis lupus familiaris, Urine.
Assay [14] has as its system Canis familiaris. Description: Diuretic effect in mongrel dog assessed as urinary excretion of Cl- at 1 mg/kg, po after 3 hrs (reference value: 0.08 +/- 0.02 mequiv/kg). Format: functional, Canis lupus familiaris, Urine.
In assay [15] the test system is Canis familiaris. Briefly: Diuretic effect in mongrel dog assessed as urinary excretion of water at 0.25 mg/kg, iv after 3 hrs (reference value: 0.93 +/- 0.35 ml/kg). Format: functional, Canis lupus familiaris, Urine.
The test system of assay [16] is Canis familiaris. Description: Diuretic effect in mongrel dog assessed as urinary excretion of Na+ at 0.25 mg/kg, iv after 3 hrs (reference value: 0.10 +/- 0.02 mequiv/kg). It is filed as functional, Canis lupus familiaris, Urine.
For assay [17], the system named is Canis familiaris. Description: Diuretic effect in mongrel dog assessed as urinary excretion of K+ at 0.25 mg/kg, iv after 3 hrs (reference value: 0.16 +/- 0.01 mequiv/kg). Format: functional, Canis lupus familiaris, Urine.
Assay [18] has as its system Canis familiaris. Description: Diuretic effect in mongrel dog assessed as urinary excretion of Cl- at 0.25 mg/kg, iv after 3 hrs (reference value: 0.08 +/- 0.02 mequiv/kg). It is filed as functional, Canis lupus familiaris, Urine.

Activity calls are given as the source filed them. The rule behind the calls is not given here.

With `NC(=O)Nc1cc(C(=O)O)cc(NCc2ccccc2)c1Oc1ccccc1`, the Activity in assay [1] was determined as 13 mL/kg; in assay [2] it was 1.3 milliequivalent/kg; in assay [3], 0.33 milliequivalent/kg; in assay [4] it was 1.7 milliequivalent/kg.

In the case of `O=C(O)c1cc(NC(=O)c2ccccc2)c(C(=O)c2ccccc2)c(OCc2ccccc2)c1`, the outcome in [1] (Canis lupus familiaris, Urine) was inactive.

For the compound `CC(=O)Nc1cc(C(=O)O)cc(OCc2ccccc2)c1C(=O)c1ccccc1`, the Activity in assay [1] came to 14 mL/kg; in assay [2], 1.3 milliequivalent/kg; in assay [3], 0.45 milliequivalent/kg; in [4], 3 milliequivalent/kg.

For `CNC(=O)Nc1cc(C(=O)O)cc(NCc2ccccc2)c1Oc1ccccc1`, the Activity was 8 mL/kg in [1], 0.7 milliequivalent/kg in assay [2], 0.2 milliequivalent/kg in [3] and 1.1 milliequivalent/kg in [4].

For `CCNc1cc(C(=O)O)cc(OCc2ccccc2)c1C(=O)c1ccccc1`, the Activity entry in [1] (Canis lupus familiaris, Urine) is “inactive”; in assay [2] (Canis lupus familiaris, Urine), “inactive”; in [3] (Canis lupus familiaris, Urine) it was “inactive”; in [4] (Canis lupus familiaris, Urine), “inactive”.

On to `O=CNc1cc(C(=O)O)cc(SCc2ccsc2)c1Oc1ccccc1`, for which the Activity in assay [1] was found to be 11 mL/kg; in [2], 1.3 milliequivalent/kg; in [3], 0.45 milliequivalent/kg; in assay [4] it was 1.9 milliequivalent/kg.

For `C=CCSc1cc(C(=O)O)cc(NC=O)c1C(=O)c1ccccc1`, the result in assay [1] (Canis lupus familiaris, Urine) was inactive.

As to `CC(=O)Nc1cc(C(=O)O)cc(OCc2ccccc2)c1-c1ccccc1`, the Activity in assay [1] was determined as 8 mL/kg; in assay [2], 1 milliequivalent/kg; in [3], 0.22 milliequivalent/kg; in [4], 1.1 milliequivalent/kg.

As for `O=C(O)c1cc(NC(=O)C(F)(F)F)c(C(=O)c2ccccc2)c(OCc2ccccc2)c1`, the result in [5] (Canis lupus familiaris, Urine) was inactive.

In the case of `CCN(C=O)c1cc(C(=O)O)cc(OCc2ccccc2)c1C(=O)c1ccccc1`, the Activity entry in assay [1] (Canis lupus familiaris, Urine) was “inactive”; in assay [2] (Canis lupus familiaris, Urine) it was “inactive”; in [3] (Canis lupus familiaris, Urine), “inactive”; in assay [4] (Canis lupus familiaris, Urine), “inactive”.

Turning to `CCCNC(=O)Nc1cc(C(=O)O)cc(NCc2ccccc2)c1Oc1ccccc1`, the Activity in assay [1] was 4 mL/kg; in assay [6], 11 mL/kg; in assay [2], 0.4 milliequivalent/kg; in assay [7], 1.1 milliequivalent/kg; in assay [3], 0.12 milliequivalent/kg; in [8], 0.4 milliequivalent/kg. For the same compound, the Activity was determined as 0.3 milliequivalent/kg in [4] and 1.9 milliequivalent/kg in assay [9].

As to `CN(C)c1cc(C(=O)O)cc(OCc2ccccc2)c1C(=O)c1ccccc1`, the Activity result in [1] (Canis lupus familiaris, Urine) is “inactive”; in assay [2] (Canis lupus familiaris, Urine) it was “inactive”; in [3] (Canis lupus familiaris, Urine) it was “inactive”; in [4] (Canis lupus familiaris, Urine) it was “inactive”.

Regarding `CNc1cc(C(=O)O)cc(OCc2ccccc2)c1C(=O)c1ccccc1`, the Activity result in [1] (Canis lupus familiaris, Urine) is “inactive”; in assay [2] (Canis lupus familiaris, Urine) it was “inactive”; in assay [3] (Canis lupus familiaris, Urine), “inactive”; in [4] (Canis lupus familiaris, Urine), “inactive”.

As for `CC(=O)Nc1cc(C(=O)O)cc(NCc2ccccc2)c1Oc1ccccc1`, the Activity in assay [1] came to 11 mL/kg; in assay [6], 27 mL/kg; in assay [2] it was 1.4 milliequivalent/kg; in [7], 2.8 milliequivalent/kg; in assay [3], 0.55 milliequivalent/kg; in [8], 0.8 milliequivalent/kg. Also, the results for the Activity in assay [4] and in [9] were 2.1 milliequivalent/kg and 3.8 milliequivalent/kg, respectively.

For the compound `CC(=O)Nc1cc(C(=O)O)cc(NCc2ccccc2)c1C(=O)c1ccccc1`, the Activity came out at 6 mL/kg in assay [1]; 22 mL/kg in assay [6]; 0.4 milliequivalent/kg in assay [2]; 1.7 milliequivalent/kg in assay [7]; 0.21 milliequivalent/kg in assay [3]; 0.58 milliequivalent/kg in assay [8]. For the same compound, the Activity in assay [4] came to 0.4 milliequivalent/kg; in assay [9], 2.2 milliequivalent/kg.

With `CCCCOc1cc(C(=O)O)cc(NC=O)c1C(=O)c1ccccc1`, the Activity in assay [1] was 17 mL/kg; in assay [10], 6 mL/kg; in [2], 2.1 milliequivalent/kg; in [11], 0.5 milliequivalent/kg.

In the case of `CCCCOc1cc(C(=O)O)cc(NC(C)=O)c1C(=O)c1ccccc1`, the Activity in assay [12] was determined as 2.1 milliequivalent/kg; in [5] it was 18 mL/kg; in [13] it was 0.53 milliequivalent/kg; in assay [14], 2.5 milliequivalent/kg.

Take `CN(C=O)c1cc(C(=O)O)cc(OCc2ccccc2)c1C(=O)c1ccccc1`: the Activity entry is “Active” in [1] (Canis lupus familiaris, Urine); “Active” in assay [2] (Canis lupus familiaris, Urine); “Active” in assay [3] (Canis lupus familiaris, Urine); “Active” in assay [4] (Canis lupus familiaris, Urine).

In the case of `CCC(=O)Nc1cc(C(=O)O)cc(OCc2ccccc2)c1C(=O)c1ccccc1`, the Activity in assay [1] was found to be 7 mL/kg; in assay [2] it was 0.6 milliequivalent/kg; in [3], 0.2 milliequivalent/kg; in [4], 0.9 milliequivalent/kg.

In the case of `O=CNc1cc(C(=O)O)cc(OCc2ccccc2)c1-c1ccccc1`, the Activity in assay [1] worked out at 12 mL/kg; in [2] it was 1.3 milliequivalent/kg; in assay [3] it was 0.39 milliequivalent/kg; in assay [4] it was 1.6 milliequivalent/kg.

Take `CC(C)CCSc1cc(C(=O)O)cc(NC=O)c1C(=O)c1ccccc1`: the Activity in assay [12] came to 1.6 milliequivalent/kg; in assay [5], 15 mL/kg; in assay [13], 0.39 milliequivalent/kg; in assay [14], 1.9 milliequivalent/kg.

For `O=CNc1cc(C(=O)O)cc(OCc2ccsc2)c1C(=O)c1ccccc1`, the Activity in [15] worked out at 17 mL/kg; in [16], 2.2 milliequivalent/kg; in [12], 3.1 milliequivalent/kg; in assay [17], 0.49 milliequivalent/kg; in assay [18], 2.8 milliequivalent/kg; in assay [5], 26 mL/kg. The Activity is given as 0.64 milliequivalent/kg in assay [13] and 4.1 milliequivalent/kg in assay [14].

For `O=CNc1cc(C(=O)O)cc(NCc2ccccc2)c1Oc1ccccc1`, the Activity in assay [1] came to 8 mL/kg; in [15], 9 mL/kg; in assay [2], 1.3 milliequivalent/kg; in assay [16], 1.1 milliequivalent/kg; in [3], 0.26 milliequivalent/kg; in assay [17], 0.23 milliequivalent/kg. In addition, the figures for the Activity in assay [4] and in assay [18] were 1.3 milliequivalent/kg and 1.5 milliequivalent/kg, respectively.

Regarding `O=CNc1cc(C(=O)O)cc(NCc2ccccc2)c1-c1ccccc1`, the Activity in [1] stood at 12 mL/kg; in assay [2], 1.6 milliequivalent/kg; in assay [3], 0.43 milliequivalent/kg; in assay [4] it was 1.7 milliequivalent/kg.

For the compound `O=CNc1cc(C(=O)O)cc(SCc2ccccc2)c1Oc1ccccc1`, the result in assay [1] (Canis lupus familiaris, Urine) was inactive.

In the case of `CCCOc1cc(C(=O)O)cc(NC=O)c1C(=O)c1ccccc1`, the Activity in [1] came out at 10 mL/kg; in assay [2], 2 milliequivalent/kg; in assay [3], 0.52 milliequivalent/kg; in assay [4], 1.2 milliequivalent/kg.

Turning to `CN(C)CC(=O)Nc1cc(C(=O)O)cc(OCc2ccccc2)c1C(=O)c1ccccc1`, the result in assay [5] (Canis lupus familiaris, Urine) was inactive.

Take `O=CNc1cc(C(=O)O)cc(SCc2ccccc2)c1-c1ccccc1`: the outcome in [1] (Canis lupus familiaris, Urine) was inactive.

Turning to `O=C(CCl)Nc1cc(C(=O)O)cc(OCc2ccccc2)c1C(=O)c1ccccc1`, the result in [1] (Canis lupus familiaris, Urine) was inactive.

Consider `CCCSc1cc(C(=O)O)cc(NC=O)c1C(=O)c1ccccc1`, for which the Activity was 8 mL/kg in assay [1], 1 milliequivalent/kg in assay [2], 0.42 milliequivalent/kg in assay [3] and 1.2 milliequivalent/kg in assay [4].
